Results from US10961228B2, “JAK1 selective inhibitors” (AstraZeneca AB, priority 2017, dated 2021).

Legend:
[1] = target: recombinant JAK1 (amino acids 866-1154) (Homo sapiens (Human), UniProt P23458); test: Enzyme inhibition studies, JAK1 (5 mM ATP, Caliper); type: biochemical
Procedure: (§1) JAK enzyme was expressed as N-terminal GST fusion in insect cells and purified by glutathione-affinity and size-exclusion chromatographies. Enzymes were assayed at their approximated high end of physiological ATP concentration of 5 mM, in the presence of inhibitor dosed at 30, 3, 0.3, 0.03, 0.003 and 0 μM final test concentrations.
(§2) Phosphorylated and unphosphotylated peptides were separated and quantified by a Caliper LC3000 system (Caliper Life Sciences, MA) for calculating percent inhibition.

[2] = target: recombinant JAK2 (amino acids 831-1132) (Homo sapiens (Human), UniProt O60674); test: Enzyme inhibition studies, JAK2 (5 mM ATP, Caliper); type: biochemical
Procedure: as §1, §2

[3] = target: recombinant JAK3 (amino acids 781-1124) (Homo sapiens (Human), UniProt P52333); test: Enzyme inhibition studies, JAK3 (5 mM ATP, Caliper); type: biochemical
Procedure: as §1, §2

[4] = system: IL-13 induced STAT6 promotor luciferase reporter in U937 monocytes (U937-STAT6-Luc); test: Cellular interleukin (IL-13) induced JAK-STAT6-luciferase assay (pSTAT6); type: cell-based; conditions: Homo sapiens, U-937; IL-13 induced STAT6-luciferase, U937-STAT6-Luc cells
Procedure: Cells were harvested by centrifugation at 250 g for 5 min and resuspended in Assay buffer (20 mM HEPES, 1×HBSS and 0.1% BSA) to 1000 cells pr μl. For stimulation of cells was used interleukin (IL-13) also dissolved in Assay buffer to […]. […] Test and control compounds were applied to assay plates (low vol white 384-well plates) in serial dilutions from 10 mM to 0.5 nM at 5 nl pr well in DMSO.
To each well was added 4 μl cells and 4 μl interleukin (IL-13) and the plates were sealed and incubated at 37° C. for 4½ h and then at room temperature for 30 min. The assay was developed by addition of 4 μl pr well of SteadyGlo (Promega) and after […] the plates were read at an Envision plate reader with luminescence filter.

recombinant JAK1 (amino acids 866-1154), sequence (P23458 866-1154): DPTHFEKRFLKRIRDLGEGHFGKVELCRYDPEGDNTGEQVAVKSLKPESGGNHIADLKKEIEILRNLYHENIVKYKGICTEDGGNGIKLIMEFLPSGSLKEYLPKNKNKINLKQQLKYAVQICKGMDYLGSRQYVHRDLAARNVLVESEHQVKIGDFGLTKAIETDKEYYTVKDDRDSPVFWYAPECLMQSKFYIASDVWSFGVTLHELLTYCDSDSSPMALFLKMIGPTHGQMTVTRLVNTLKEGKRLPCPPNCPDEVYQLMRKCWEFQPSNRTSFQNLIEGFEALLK
recombinant JAK2 (amino acids 831-1132), sequence (O60674 831-1132): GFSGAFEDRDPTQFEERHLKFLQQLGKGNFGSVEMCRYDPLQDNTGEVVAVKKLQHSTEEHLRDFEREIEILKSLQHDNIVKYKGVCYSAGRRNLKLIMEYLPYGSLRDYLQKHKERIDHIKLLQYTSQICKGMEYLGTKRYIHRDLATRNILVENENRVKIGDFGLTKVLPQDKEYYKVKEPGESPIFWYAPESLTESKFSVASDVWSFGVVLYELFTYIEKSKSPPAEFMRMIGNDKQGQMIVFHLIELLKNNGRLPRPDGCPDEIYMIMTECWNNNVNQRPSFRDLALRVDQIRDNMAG
recombinant JAK3 (amino acids 781-1124), sequence (P52333 781-1124): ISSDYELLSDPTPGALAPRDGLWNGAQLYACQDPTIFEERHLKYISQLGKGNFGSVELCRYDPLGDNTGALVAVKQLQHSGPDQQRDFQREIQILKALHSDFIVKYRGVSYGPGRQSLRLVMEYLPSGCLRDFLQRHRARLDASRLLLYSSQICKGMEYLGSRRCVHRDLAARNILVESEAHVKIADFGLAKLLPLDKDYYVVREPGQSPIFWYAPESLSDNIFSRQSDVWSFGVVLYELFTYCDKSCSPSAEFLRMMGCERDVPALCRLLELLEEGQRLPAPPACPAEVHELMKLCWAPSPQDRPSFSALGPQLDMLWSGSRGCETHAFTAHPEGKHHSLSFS

SMILES | IC50 [1] | IC50 [2] | IC50 [3] | IC50 [4]
CCS(=O)(=O)c1cccc(Nc2ncc(C)c(-c3c[nH]c4c(NC(=O)[C@@H](C)N5CCN(C)CC5)cccc34)n2)c1F [Example 3, (R)-N-(3-(2-(3-(ethylsulfonyl)-2-fluorophenylamino)-5-methylpyrimidin-4-yl)-1H-indol-7-yl)-2-(4-methylpiperazin-1-yl)propanamide] | < 3 nM | 4120 nM | > 30000 nM | 39 nM
CC[C@H](C(=O)Nc1cccc2c(-c3nc(Nc4cccc(S(C)(=O)=O)c4F)ncc3C)c[nH]c12)N1CCN(C)CC1 [Example 14, (R)-N-(3-(2-((2-fluoro-3-(methylsulfonyl)phenyl)amino)-5-methylpyrimidin-4-yl)-1H-indol-7-yl)-2-(4-methylpiperazin-1-yl)butanamide] | < 3 nM | 2430 nM | > 30000 nM | 21 nM
CC[C@H](C(=O)Nc1cccc2c(-c3nc(Nc4cccc(S(C)(=O)=O)c4F)ncc3C)c[nH]c12)N1CCN(C)CC1C (stereo in doubt) [Example 60, (R)-2-((S)-2,4-dimethylpiperazin-1-yl)-N-(3-(2-((2-fluoro-3-(methylsulfonyl)phenyl)amino)-5-methylpyrimidin-4-yl)-1H-indol-7-yl)butanamide] | 7.4 nM | 11900 nM | > 30000 nM | 64.2 nM
CC[C@@H](C(=O)Nc1cccc2c(-c3nc(Nc4cccc(S(C)(=O)=O)c4F)ncc3F)c[nH]c12)N1CCN(C)CC1 [Example 39, (S)-N-(3-(5-fluoro-2-((2-fluoro-3-(methylsulfonyl)phenyl)amino)pyrimidin-4-yl)-1H-indol-7-yl)-2-(4-methylpiperazin-1-yl)butanamide] | 256 nM | > 30000 nM | > 30000 nM | 446 nM
COC[C@@H](C(=O)Nc1cccc2c(-c3nc(Nc4cccc(S(C)(=O)=O)c4F)ncc3C)c[nH]c12)N1CCN(C)C[C@H]1C [Example 54, (S)-2-((R)-2,4-dimethylpiperazin-1-yl)-N-(3-(2-((2-fluoro-(methylsulfonyl)phenyl)amino)-5-methylpyrimidin-4-yl)-1H-indol-7-yl)-3-methoxypropanamide] | 14 nM | 6720 nM | > 30000 nM | 258 nM
CC[C@H](C(=O)Nc1cccc2c(-c3nc(Nc4cccc(S(C)(=O)=O)c4F)ncc3C)c[nH]c12)N1CCCN(C)CC1 [Example 37, (R)-N-(3-(2-((2-fluoro-3-(methylsulfonyl)phenyl)amino)-5-methylpyrimidin-4-yl)-1H-indol-7-yl)-2-(4-methyl-1,4-diazepan-1-yl)butanamide] | < 3 nM | 968 nM | > 30000 nM | 26.9 nM

More lines, now with the values ahead:

IC50 [1] | IC50 [2] | IC50 [3] | IC50 [4] | SMILES
123 nM | > 30000 nM | > 30000 nM | 745 nM | COC[C@@H](C(=O)Nc1cccc2c(-c3nc(Nc4cccc(S(C)(=O)=O)c4F)ncc3F)c[nH]c12)N1CCN(C)C[C@H]1C [Example 56]
13.1 nM | 11100 nM | > 30000 nM | 85 nM | C[C@H](C(=O)Nc1cccc2c(-c3nc(Nc4cccc(S(C)(=O)=O)c4F)ncc3F)c[nH]c12)N1C[C@H](C)N[C@@H](C)C1 [Example 11, (R)-2-((3S,5S)-3,5-dimethylpiperazin-1-yl)-N-(3-(5-fluoro-2-((2-fluoro-3-(methylsulfonyl)phenyl)amino)pyrimidin-4-yl)-1H-indol-7-yl)propanamide]
24.5 nM | > 30000 nM | > 30000 nM | 78 nM | C[C@H](C(=O)Nc1cccc2c(-c3nc(Nc4cccc(S(C)(=O)=O)c4F)ncc3F)c[nH]c12)N1C[C@H](C)N(C)[C@@H](C)C1 [Example 8, (R)-N-(3-(5-fluoro-2-((2-fluoro-3-(methylsulfonyl)phenyl)amino)pyrimidin-4-yl)-1H-indol-7-yl)-2-((3S,5S)-3,4,5-trimethylpiperazin-1-yl)propanamide]
